According to patent US20070010459A1, “Application of asiatic acid and its derivatives to treat pulmonary fibrosis” (priority 2005, published 2007):
≈ marks a conversion by molar mass, not a printed value.

Columns and labels:
[1] = test system: pulmonary fibrosis induced by bleomycin in rat; assay: Asiatic acid in bleomycin-induced pulmonary fibrosis rat model; type: in vivo, SD male rats; settings: for Lung CT scanning results: after 28 days; for Lung Weight: mean
Description: The pulmonary fibrosis animal model was induced by bleomycin in rat according to the methods described by Lazo J S, Hoyt D G, Sebti S M, Pitt B R. in Pharmacol Ther. 1990: 47:347-58. In this article, praquat, bleomycin and amiodrone are three routinely used chemical agent to induce lung fibrosis is rodents, e.g. mice, rat and Chinese hamsters as well as primates, e.g. baboon and cynomolgous monkey etc. there are also reports describing using rabbit or dog as model animal for such study. Different groups were able to generate lung fibrosis in animal models through different administration routes. For example, 3 various pulmonary fibrosis animal models using Co^60 to radiate rat, bleomycin or CCl4 injection into abdominal cavity of mice or rat respectively were generated. […] Specifically, diffusive stromal lung fibrosis model induced by tracheal bleomycin dripping is the most commonly used animal model. The advantage of this method is that the model can be obtained with once bleomycin dripping without repeated venous or abdominal injections, therefore limiting the influences to other organs caused by systematic administrations. It also lowers the experimental cost. The development of pulmonary fibrosis from alveolitis can be observed in 4 weeks, which is very similar to the pulmonary fibrosis pathological development in human being.
1. Animal: SD male rats with weight raging between 200-250 g, purchased from SLAC.
3. Dosage: Asiatic acid, 3, 9, […], po for 28 days.
Male SD rats were lay down flat on operating table and anesthetize with 3% Secobarbital. The trachea was exposed after sterilization of cervical part with alcohol. The needle was then inserted into tracheal cartilage interspace. Bleomycin at 5 mg/kg was dipped in. Afterwards, the rats were reared to evenly distribute bleomycin in the lung. The trachea was then sutured. […] The regimen was initiated on the second day. Sham-operated and untreated group received saline. After 28 days of treatment, lung weight, hydroyproline content, pathological section and CT scan were measured or conducted.
After 28 days on asiatic acid, rats were sacrificed and dissected. The body and lung weight were measured respectively and used to calculate lung weigh coefficient.
After 28 days on Asiatic acid, hydroxyproline content in lung was measured. The results are as follows:
After 28 days on asiatic acid, lung CT scans were performed to each group of experimental rats.
After 28 days on asiatic acid, the rats were sacrificed and dissected. Both lungs were harvested. The specimen were embedded and fixed then subjected to HE staining. The focus of infection were observed under microscope with ⅓, ⅔ and 3/3 Vf*10 to conduct semi-quantative analysis.

[2] = test system: rats with pulmonary fibrosis induced by bleomycin; assay: Pharmacodynamics of asiaticoside in rats with pulmonary fibrosis induced by bleomycin; type: in vivo
Experimental: The rats with lung fibrosis were induced by bleomycin through trachea administration and then treated with asiaticoside. […] The study regimen lasted for 28 days. The lung weight coefficient and hydroyproline (HXP) content were measured on day 2 and 8 after the formation of animal model. CT scan, pathology and serum ECM content measurements were conducted on day 14, 21 and 28 days respectively.

[3] = test system: radiation pneumonia and subsequent pulmonary fibrosis induced by Cobalt-60 radiation; assay: Pharmacodynamics of asiaticoside in radiation pneumonia induced by Cobalt-60 radiation; type: in vivo, rats; set-up: Type IV (collagen content comparison, serum ECM) / Laminin (serum ECM) / Hyaluronic Acid (serum ECM): unit not given here
Experimental: Radiation pneumonia and subsequent pulmonary fibrosis in rats was induced by Cobalt-60 radiation. The efficacies were assessed by the lung weight coefficient, HXP content, serum ECM measurement, CT scan and pathological examinations.

[4] = test system: primary culture of mice fibroblast; assay: bFGF-stimulated proliferation of primary fibroblast culture; type: cell-based; settings: tested at 25, 12.5, 6.25, 3.125 or 1.56 μg
Experimental: Using bFGF (0.5 µg/ml), the proliferation of primary culture of mice fibroblast with the presence of asiaticoside or asiatic acid at 25, 12.5, 6.25, 3.125 or 1.56 μg respectively was assessed.

[5] = Pharmacokinetics, tissue distribution and excretion of asiaticoside; type: in vivo, rats; settings: rat, in vivo, 100 mg/kg
Experimental: Three doses of asiaticoside (10, 33, 100 mg/kg) were gavaged to rats (n=6) and canines (n=4). After dosing, blood was sampled up to 120 or 216 hours in rats and canines respectively. Tissue distribution and excretion studies in rats were carried out with the highest dose.
The respective asiaticoside and asiatic acid in the same bio-matrix were detected by LC/MS/MS and GC/MS. Because the secondary peak resembled a plasma concentration-time profile in both rat and canine rather than conventional compartment fitting, statistical moment analysis was used in calculating pharmacokinetic parameters. […] In addition to the targeted organ, both asiaticoside and asiatic acid were distributed in some other organs, which could be the sign to expand clinical indications.

[6] = background statement, see U.S. Pat. No. 6,417,349; cited from earlier work
[7] = first experiment, dexmethasone 0.6 mg/kg po 28 days
[8] = second experiment, dexmethasone 0.6 mg/kg po 28 days
[9] = third experiment, dexmethasone 0.6 mg/kg po 28 days
[10] = dexamethasone 0.6 mg/kg daily oral, 28 days
[11] = first experiment, asiatic acid high dose 27 mg/kg po 28 days
[12] = first experiment, asiatic acid low dose 3 mg/kg po 28 days
[13] = first experiment, asiatic acid medium dose 9 mg/kg po 28 days
[14] = second experiment, asiatic acid high dose 27 mg/kg po 28 days
[15] = second experiment, asiatic acid low dose 3 mg/kg po 28 days
[16] = second experiment, asiatic acid medium dose 9 mg/kg po 28 days
[17] = third experiment, asiatic acid high dose 27 mg/kg po 28 days
[18] = third experiment, asiatic acid low dose 3 mg/kg po 28 days
[19] = third experiment, asiatic acid medium dose 9 mg/kg po 28 days

C[C@@H]1C[C@H]2[C@@H]3CCC4=CC(=O)C=C[C@]4(C)[C@@]3(F)[C@@H](O)C[C@]2(C)[C@@]1(O)C(=O)CO [Dexmethasone, Dexamethasone, reference compound]
Lung CT scanning results ([1]; dexmethasone 0.6 mg/kg po): Light hyperplasy in lung striation. Light consolidation | HX content (hydroxyproline content in lung) X ± SD ([1]; first experiment, 0.6 mg/kg po * 28): 2.34 ± 9.54 mg/g | Lung weight coefficient [1, 7]: 0.72 | Lung Weight [1, 7]: 1.90 g | HX content (hydroxyproline content in lung) X ± SD ([1]; second experiment, 0.6 mg/kg po * 28): 2.41 ± 0.45 mg/g | Lung weight coefficient [1, 8]: 0.69 | Lung Weight [1, 8]: 1.62 g | HX content (hydroxyproline content in lung) X ± SD ([1]; third experiment, 0.6 mg/kg po * 28): 2.47 ± 0.45 mg/g | Lung weight coefficient [1, 9]: 0.72 | Lung Weight [1, 9]: 1.90 g | CT scan findings ([2]; dexamethasone 0.6 mg/kg): ground glass infiltration and fibrotic streaks were found in both lungs | ET-1 (cytokine content) ([2]; dexamethasone 0.6 mg/kg): 257.86 ± 20.81 | Hyaluronic Acid (serum ECM) ([2]; dexamethasone 0.6 mg/kg): 232.97 ± 101.24 | Laminin (serum ECM) ([2]; dexamethasone 0.6 mg/kg): 48.41 ± 14.12 | PIIIP (collagen content comparison, serum ECM) ([2]; dexamethasone 0.6 mg/kg): 19.59 ± 6.24 | Pathology ([2]; dexamethasone 0.6 mg/kg): a light inflammatory reaction caused by lymphocyte was found with inflammatory cell infiltration seen in the alveoli pulmonis | TNF-α (cytokine content) ([2]; dexamethasone 0.6 mg/kg): 6.50 ± 0.73 | TNF-[…] (cytokine content) ([2]; dexamethasone 0.6 mg/kg): 0.075 ± 0.010 | Type IV (collagen content comparison, serum ECM) ([2]; dexamethasone 0.6 mg/kg): 10.71 ± 4.94 | HXP content [2, 10]: 19.32 ± 4.35 mg/g | Lung weight coefficient [2, 10]: 0.72% | CT scan findings ([3]; dexamethasone group): mild ground glass infiltration and fibrotic streaks in the right lung with right base atelectasis | HXP content ([3]; dexamethasone treated): 36.42 ± 2.74 mg/g | Hyaluronic Acid (serum ECM) ([3]; dexamethasone treated): 195.12 ± 55.89 | Laminin (serum ECM) ([3]; dexamethasone treated): 47.91 ± 8.04 | Lung weight coefficient ([3]; dexamethasone treated): 0.42% | PIIIP (collagen content comparison, serum ECM) ([3]; dexamethasone treated): 14.51 ± 5.61 | Type IV (collagen content comparison, serum ECM) ([3]; dexamethasone treated): 12.65 ± 2.87

C[C@H]1[C@H](C)CC[C@]2(C(=O)O)CC[C@]3(C)C(=CC[C@@H]4[C@@]5(C)C[C@@H](O)[C@H](O)[C@@](C)(CO)[C@@H]5CC[C@]43C)[C@H]12 [Asiatic acid, asiatic acid]
CT: therapeutic effect in acute phase of pulmonary fibrosis ([1]; acute phase): didn't display any therapeutic effects | Lung CT scanning results ([1]; asiatic acid high dose 27 mg/kg po): Light glass infiltration, part of lobules consolidates. | Lung CT scanning results ([1]; asiatic acid low dose 3 mg/kg po): Consolidation in lobules, bronchiectasis, honeycomb | Pathology results (HE staining of lungs) ([1]; asiatic acid high, medium and low dose, 28 days, not dose dependent): light fibroplasias in alveoli pulmonis diaphragm, light lymphocyte infiltration and compensatory emphysema | Lung weight coefficient [1, 11]: 0.70 | Lung Weight [1, 11]: 2.17 g | Lung weight coefficient [1, 12]: 0.66 | Lung Weight [1, 12]: 1.97 g | Lung weight coefficient [1, 13]: 0.66 | Lung Weight [1, 13]: 2.02 g | HX content (hydroxyproline content in lung) X ± SD ([1]; first experiment, high dose 27 mg/kg po * 28): 2.39 ± 0.44 mg/g | HX content (hydroxyproline content in lung) X ± SD ([1]; first experiment, low dose 3 mg/kg po * 28): 3.43 ± 0.62 mg/g | HX content (hydroxyproline content in lung) X ± SD ([1]; first experiment, medium dose 9 mg/kg po * 28): 2.36 ± 0.87 mg/g | CT: therapeutic effect in mid to late phase of the disease ([1]; mid to late phase): can significantly relive the extent of fibrosis in lungs | Overall effect on lung fibrosis ([1]; rats receiving bleomycin induction, direct administration): can relieve lung fibrosis | Lung weight coefficient [1, 14]: 0.65 | Lung Weight [1, 14]: 2.26 g | Lung weight coefficient [1, 15]: 0.76 | Lung Weight [1, 15]: 2.34 g | Lung weight coefficient [1, 16]: 0.70 | Lung Weight [1, 16]: 2.21 g | HX content (hydroxyproline content in lung) X ± SD ([1]; second experiment, high dose 27 mg/kg po * 28): 2.37 ± 0.41 mg/g | HX content (hydroxyproline content in lung) X ± SD ([1]; second experiment, low dose 3 mg/kg po * 28): 3.41 ± 0.60 mg/g | HX content (hydroxyproline content in lung) X ± SD ([1]; second experiment, medium dose 9 mg/kg po * 28): 2.36 ± 0.79 mg/g | Lung weight coefficient [1, 17]: 0.70 | Lung Weight [1, 17]: 2.17 g | Lung weight coefficient [1, 18]: 0.66 | Lung Weight [1, 18]: 1.97 g | Lung weight coefficient [1, 19]: 0.66 | Lung Weight [1, 19]: 2.02 g | HX content (hydroxyproline content in lung) X ± SD ([1]; third experiment, high dose 27 mg/kg po * 28): 2.30 ± 0.46 mg/g | HX content (hydroxyproline content in lung) X ± SD ([1]; third experiment, low dose 3 mg/kg po * 28): 3.42 ± 0.57 mg/g | HX content (hydroxyproline content in lung) X ± SD ([1]; third experiment, medium dose 9 mg/kg po * 28): 2.71 ± 0.44 mg/g | IC50 ([4]; Mus musculus, Fibroblast, bFGF, read-out: IC50, growth inhibition of fibroblast treated with bFGF): 137 µg/mL (≈ 280 µM) | Inhibitory activity on fibroblast proliferation ([4]; bFGF 0.5 g/ml): growth inhibitory roles to fibroblast treated with bFGF to certain extent | Tissue accumulation [5]: no apparent tissue accumulation | Solubility [6]: insoluble in water
